Measured values taken from PMC8317962, “Development of tacrine clusters as positively cooperative systems for the inhibition of acetylcholinesterase” (Journal of Enzyme Inhibition and Medicinal Chemistry, 2021).
Like-named read-outs stand apart in the source and are kept apart here.

What was measured:
[1] = biological target: T1, acetylcholinesterase from Electrophorus electricus (Electrophorus electricus, UniProt O42275); assay: biochemical; format: biochemical; conditions: for less active when connected to the central multivalent sugar scaffold: from rp/n of the corresponding tetra-tacrine; for IC50: read-out: AChE IC50; for AChE rp (relative inhibition potency): rp = IC50 (mono-tacrine)/IC50 (tetra-tacrine); for AChE rp/n (inhibition potency on valency-corrected basis): rp/n = rp/number of tacrine rings
T1 construct: purchased Sigma Aldrich type V-S
T1 sequence (O42275 24-633): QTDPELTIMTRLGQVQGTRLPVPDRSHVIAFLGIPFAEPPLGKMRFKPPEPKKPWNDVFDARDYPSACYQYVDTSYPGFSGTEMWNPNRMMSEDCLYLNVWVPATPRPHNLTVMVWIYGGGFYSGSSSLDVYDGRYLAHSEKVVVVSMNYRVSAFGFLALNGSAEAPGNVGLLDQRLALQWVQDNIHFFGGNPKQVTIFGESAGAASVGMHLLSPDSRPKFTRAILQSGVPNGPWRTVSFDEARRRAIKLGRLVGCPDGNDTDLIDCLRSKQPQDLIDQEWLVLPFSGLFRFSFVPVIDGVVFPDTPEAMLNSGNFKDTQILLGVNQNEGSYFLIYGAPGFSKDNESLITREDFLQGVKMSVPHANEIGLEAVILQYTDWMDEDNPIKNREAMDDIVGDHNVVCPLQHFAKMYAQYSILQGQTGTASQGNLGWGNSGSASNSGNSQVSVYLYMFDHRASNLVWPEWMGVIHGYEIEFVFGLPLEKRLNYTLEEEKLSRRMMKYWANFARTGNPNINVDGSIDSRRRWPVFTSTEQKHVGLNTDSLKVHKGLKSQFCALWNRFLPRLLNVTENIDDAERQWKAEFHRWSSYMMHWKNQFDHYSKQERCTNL
Experimental: (§1) For the assessment of enzymatic inhibition, commercially available acetylcholinesterase from Electrophorus electricus (type V-S, Sigma Aldrich) was used, conducting minor modifications on Ellman’s protocol. […] Enzymatic activities were measured in a UV–Vis instrument (Hitachi U-2900) using PS cuvettes containing […] phosphate buffer (pH 8.0), 5,5′-dithiobis(2-nitrobenzoic acid) (DTNB, 0.88 mM, buffer solution), acetylthiocholine iodide as a model substrate, inhibitor, properly diluted aqueous enzyme solution, and water up to 1.2 ml. Solutions of the enzymes were prepared so as to keep the reaction rate within 0.12–0.15 Abs/min when [S] = 4 × KM.
Calculation of IC50 values was accomplished by plotting %I vs. log[I] and adjusting to a second-order equation.
(§2) Data are expressed as the mean ± SD.

[2] = biological target: T1, acetylcholinesterase from Electrophorus electricus; assay: Kinetic study of AChE inhibition mode (Cornish-Bowden plots, inhibition constants); format: biochemical; conditions: for Ki: mean ± SD
Experimental: as §1, with “KM. The formation of the chromophore was monitored during 125 s at 405 nm and 25 °C.” for “KM.”
For the calculation of the kinetic parameters of the free enzyme, and in the presence of 3a, five different substrate concentrations, ranging from ¼ KM to 4 × KM were used. Cornish-Bowden method[26] provided the mode of inhibition of 3a; for that purpose, two different plots were used: 1/v vs. [I] (Dixon plot) and [S]/v vs. [I]. […] Kinetic parameters (KM, Vmax, KM app, Vmax app) were obtained through non-linear regression analysis (least squares fit) using the GraphPad Prism 8.01 software and inhibition constants were calculated using the following equations: (1) KM,app=KM1+[I]/Kia/1+[I]/Kib (2) Vmaxapp=Vmax/1+[I]/Kib
as §2

AChE = conditions: cited from earlier work
[3] = [S] = 121 μM, Electrophorus electricus AChE, mean ± SD

## OCc1cn(CCCCCCNc2c3c(nc4ccccc24)CCCC3)nn1 [Compound 5b, (1-(6-((1,2,3,4-tetrahydroacridin-9-yl)amino)hexyl)-1H-1,2,3-triazol-4-yl)metanol]
[1]
  less active when connected to the central multivalent sugar scaffold: 75%
  IC50: 12.6 ± 2.4 nM

## OCc1cn(CCCCCCCCNc2c3c(nc4ccccc24)CCCC3)nn1 [Compound 6b, (1-(8-((1,2,3,4-Tetrahydroacridin-9-yl)amino)octyl)-1H-1,2,3-triazol-4-yl)metanol]
[1]
  less active when connected to the central multivalent sugar scaffold: more than 99%
  IC50: 7.1 ± 1 nM

## OCc1cn(CCCNc2c3c(nc4ccccc24)CCCC3)nn1 [Compound 4b, (1-(3-((1,2,3,4-tetrahydroacridin-9-yl)amino)propyl)-1H-1,2,3-triazol-4-yl)metanol]
[1]
  IC50: 348 ± 23 nM

## CO[C@H]1O[C@H](COCc2cn(CCCNc3c4c(nc5ccccc35)CCCC4)nn2)[C@@H](OCc2cn(CCCNc3c4c(nc5ccccc35)CCCC4)nn2)[C@H](OCc2cn(CCCNc3c4c(nc5ccccc35)CCCC4)nn2)[C@H]1OCc1cn(CCCNc2c3c(nc4ccccc24)CCCC3)nn1 [Compound 4a]
[1]; [3]
  IC50: 60.2 ± 5.5 nM
[1]
  AChE rp (relative inhibition potency): 5.8
  AChE rp/n (inhibition potency on valency-corrected basis): 1.5

## CO[C@H]1O[C@H](COCc2cn(CCCCCCCCNc3c4c(nc5ccccc35)CCCC4)nn2)[C@@H](OCc2cn(CCCCCCCCNc3c4c(nc5ccccc35)CCCC4)nn2)[C@H](OCc2cn(CCCCCCCCNc3c4c(nc5ccccc35)CCCC4)nn2)[C@H]1OCc1cn(CCCCCCCCNc2c3c(nc4ccccc24)CCCC3)nn1 [Compound 6a]
[1]; [3]
  IC50: 232 ± 21 nM
[1]
  AChE rp (relative inhibition potency): 0.03

## CO[C@H]1O[C@H](COCc2cn(CCCCCCNc3c4c(nc5ccccc35)CCCC4)nn2)[C@@H](OCc2cn(CCCCCCNc3c4c(nc5ccccc35)CCCC4)nn2)[C@H](OCc2cn(CCCCCCNc3c4c(nc5ccccc35)CCCC4)nn2)[C@H]1OCc1cn(CCCCCCNc2c3c(nc4ccccc24)CCCC3)nn1 [Compound 5a]
[1]
  IC50: 12.5 ± 3.3 nM
  AChE rp (relative inhibition potency): 1.0

## CO[C@H]1O[C@H](COCc2cn(CCNc3c4c(nc5ccccc35)CCCC4)nn2)[C@@H](OCc2cn(CCNc3c4c(nc5ccccc35)CCCC4)nn2)[C@H](OCc2cn(CCNc3c4c(nc5ccccc35)CCCC4)nn2)[C@H]1OCc1cn(CCNc2c3c(nc4ccccc24)CCCC3)nn1 [Compound 3a]
[1]
  IC50: 43.7 ± 7.3 nM
  AChE rp (relative inhibition potency): 12.9
  AChE rp/n (inhibition potency on valency-corrected basis): 3.2
[2]; Cornish-Bowden method
  mode of inhibition of AChE: Mixed inhibition
[2]; binding to enzyme-substrate complex, read-out: Kib (non-competitive inhibition constant)
  Ki: 45 ± 5.9 nM
[2]; binding to free enzyme, read-out: Kia (competitive inhibition constant)
  Ki: 31.6 ± 2 nM

## OCc1cn(CCNc2c3c(nc4ccccc24)CCCC3)nn1 [Compound 3b, (1-(2-((1,2,3,4-tetrahydroacridin-9-yl)amino)ethyl)-1H-1,2,3-triazol-4-yl)metanol]
[1]
  IC50: 565 ± 79 nM

## CO[C@H]1O[C@H](CO)[C@@H](O)[C@H](O)[C@H]1O [Methyl α-D-glucopyranoside, methyl α-D-glucopyranoside, reference compound]
[1]; Tested at 100 μM inhibitor concentration, [S] = 121 μM
  AChE inhibition (N.I.): N.I.^d

## c1ccc2c(NCCCCCCCNc3c4c(nc5ccccc35)CCCC4)c3c(nc2c1)CCCC3 [bis(7)tacrine]
AChE
  fold stronger AChE inhibitor than tacrine: ~1000 fold
